Measured values: patent publication US8293909B2, “Compounds for the treatment of hepatitis C” (Bristol-Myers Squibb Company, priority 2008, dated 2012)

Columns and labels:
[1] = biological target: T1, HCV NS5B RdRp genotype 1b (Hepatitis C virus genotype 1b, UniProt Q9WMX2); experiment: HCV NS5B RdRp enzyme assay (standard / modified); format: biochemical; conditions: HCV NS5B genotype 1b
T1 construct: The protein was expressed with an 18 amino acid C-terminal truncation to enhance the solubility; made in house; host or cells: E. coli BL21(DE3), pET21a vector
T1 sequence (Q9WMX2 2420-2992): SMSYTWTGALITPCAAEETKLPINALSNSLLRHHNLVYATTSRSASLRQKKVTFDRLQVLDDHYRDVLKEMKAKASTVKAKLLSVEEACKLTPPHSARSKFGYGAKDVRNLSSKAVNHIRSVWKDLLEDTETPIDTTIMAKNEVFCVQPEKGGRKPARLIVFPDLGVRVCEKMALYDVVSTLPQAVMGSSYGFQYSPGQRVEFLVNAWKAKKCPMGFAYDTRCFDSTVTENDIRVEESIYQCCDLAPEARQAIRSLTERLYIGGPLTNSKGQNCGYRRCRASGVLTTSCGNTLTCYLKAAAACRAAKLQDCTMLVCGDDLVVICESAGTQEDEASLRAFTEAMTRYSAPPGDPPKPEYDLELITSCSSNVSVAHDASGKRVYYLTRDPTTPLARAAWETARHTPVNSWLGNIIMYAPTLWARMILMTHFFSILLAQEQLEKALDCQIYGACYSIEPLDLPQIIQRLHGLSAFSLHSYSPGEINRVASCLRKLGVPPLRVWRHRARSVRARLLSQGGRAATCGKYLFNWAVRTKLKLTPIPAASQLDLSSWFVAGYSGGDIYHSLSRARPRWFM
Experimental: HCV NS5B RdRp cloning, expression, and purification. The cDNA encoding the NS5B protein of HCV, genotype 1b, was cloned into the pET21a expression vector. The protein was expressed with an 18 amino acid C-terminal truncation to enhance the solubility. The E. coli competent cell line BL21(DE3) was used for expression of the protein. Cultures were grown at 37° C. for ˜4 hours until the cultures reached an optical density of 2.0 at 600 nm. The cultures were cooled to 20° C. and induced with 1 mM IPTG. Fresh ampicillin was added to a final concentration of 50 μg/ml and the cells were grown overnight at 20° C.
Cell pellets (3 L) were lysed for purification to yield 15-24 mgs of purified NS5B. The lysis buffer consisted of 20 mM Tris-HCl, pH 7.4, 500 mM NaCl, 0.5% triton X-100, 1 mM DTT, 1 mM EDTA, 20% glycerol, 0.5 mg/ml lysozyme, 10 mM MgCl2, 15 ug/ml deoxyribonuclease I, and Complete™ protease inhibitor tablets (Roche). After addition of the lysis buffer, frozen cell pellets were resuspended using a tissue homogenizer. To reduce the viscosity of the sample, aliquots of the lysate were sonicated on ice using a microtip attached to a Branson sonicator. The sonicated lysate was centrifuged at 100,000×g for 1 hr at 4° C. and filtered through a 0.2 μm filter unit (Corning).
The protein was purified using three sequential chromatography steps: Heparin sepharose CL-6B, polyU sepharose 4B, and Hitrap SP sepharose (Pharmacia). The chromatography buffers were identical to the lysis buffer but contained no lysozyme, deoxyribonuclease I, MgCl2 or protease inhibitor and the NaCl concentration of the buffer was adjusted according to the requirements for charging the protein onto the column. Each column was eluted with a NaCl gradient which varied in length from 5-50 column volumes depending on the column type. After the final chromatography step, the resulting purity of the enzyme is >90% based on SDS-PAGE analysis. The enzyme was aliquoted and stored at −80° C.
Standard HCV NS5B RdRp enzyme assay. HCV RdRp genotype 1b assays were run in a final volume of 60 μl in 96 well plates (Costar 3912). The assay buffer is composed of 20 mM Hepes, pH 7.5, 2.5 mM KCl, 2.5 mM MgCl2, 1 mM DTT, 1.6 U RNAse inhibitor (Promega N2515), 0.1 mg/ml BSA (Promega R3961), and 2% glycerol. All compounds were serially diluted (3-fold) in DMSO and diluted further in water such that the final concentration of DMSO in the assay was 2%. HCV RdRp genotype 1b enzyme was used at a final concentration of 28 nM. A polyA template was used at 6 nM, and a biotinylated oligo-dT12 primer was used at 180 nM final concentration. Template was obtained commercially (Amersham 27-4110). Biotinylated primer was prepared by Sigma Genosys. 3H-UTP was used at 0.6 μCi (0.29 μM total UTP). Reactions were initiated by the addition of enzyme, incubated at 30° C. for 60 min, and stopped by adding 25 μl of 50 mM EDTA containing SPA beads (4 μg/μl, Amersham RPNQ 0007). Plates were read on a Packard Top Count NXT after >1 hr incubation at room temperature.
Modified HCV NS5B RdRp enzyme assay. A modified enzyme assay was performed essentially as described for the standard enzyme assay except for the following: The biotinylated oligo dT12 primer was precaptured on streptavidin-coated SPA beads by mixing primer and beads in assay buffer and incubating at room temperature for one hour. Unbound primer was removed after centrifugation. The primer-bound beads were resuspended in 20 mM Hepes buffer, pH 7.5 and used in the assay at final concentrations of 20 nM primer and 0.67 μg/μl beads. Order of addition in the assay: enzyme (14 nM) was added to diluted compound followed by the addition of a mixture of template (0.2 nM), 3H-UTP (0.6 μCi, 0.29 μM), and primer-bound beads, to initiate the reaction; concentrations given are final. Reactions were allowed to proceed for 4 hours at 30° C.
IC50 values for compounds were determined using seven different [I]. […]

HCV replicon cells = experiment: HCV replicon assay (FRET or luciferase readout); format: cell-based; conditions: Hepatitis C virus
Excerpt: FRET Assay Preparation. To perform the HCV FRET screening assay, 96-well cell culture plates were used. The FRET peptide (Anaspec, Inc.) (Taliani et al., Anal. Biochem. 1996, 240, 60-67) contains a fluorescence donor, EDANS, near one end of the peptide and an acceptor, DABCYL, near the other end. The fluorescence of the peptide is quenched by […] resonance energy transfer (RET) between the donor and the acceptor, but as the NS3 protease cleaves the peptide the products are released from RET quenching and the fluorescence of the donor becomes apparent. The assay reagent was made as follows: 5× cell Luciferase cell culture lysis reagent from Promega (#E153A) diluted to 1× with dH2O, NaCl added to 150 mM final, the FRET peptide diluted to 20 μM final from a 2 mM stock.
To prepare plates, HCV replicon cells, with or without a Renilla luciferase reporter gene, were trypsinized and placed into each well of a 96-well plate with titrated test compounds added in columns 3 through 12; columns 1 and 2 contained a control compound (HCV protease inhibitor), and the bottom row contained cells without compound. The plates were then placed in a CO2 incubator at 37° C.
Assays. Subsequent to addition of the test compounds described above (FRET Assay Preparation), at various times the plate was removed and Alamar blue solution (Trek Diagnostics, #00-100) was added per well as a measure of cellular toxicity. After reading in a Cytoflour 4000 instrument (PE Biosystems), plates were rinsed with PBS and then used for FRET assay by the addition of 30 ul of the FRET peptide assay reagent described above (FRET Assay Preparation) per well. The plate was then placed into the Cytoflour 4000 instrument which had been set to 340 excite/490 emission, automatic mode for 20 cycles and the plate read in a kinetic mode. Typically, the signal to noise using an endpoint analysis after the reads was at least three-fold. Alternatively, after Alamar blue reading, plates were rinsed with PBS, 50 ul of DMEM (high glucose) without phenol red was added and plates were then used for luciferase assay using the Promega Dual-Glo Luciferase Assay System.
Compound analysis was determined by quantification of the relative HCV replicon inhibition and the relative cytotoxicity values. To calculate cytoxicity values, the average Alamar Blue fluorescence signals from the control wells were set as 100% non-toxic. The individual signals in each of the compound test wells were then divided by the average control signal and multiplied by 100% to determine […]. To calculate the HCV replicon inhibition values, an average background value was obtained from the two wells containing the highest amount of HCV protease inhibitor at the end of the assay period. These numbers were similar to those obtained from naïve Huh-7 cells.
The background numbers were then subtracted from the average signal obtained from the control wells and this number was used as 100% activity. The individual signals in each of the compound test wells were then divided by the averaged control values after background subtraction and multiplied by 100% to determine percent activity. EC50 values for a protease inhibitor titration were calculated as the concentration which caused a 50% reduction in FRET or luciferase activity. The two numbers generated for the compound plate, percent cytoxicity and percent activity were used to determine compounds of interest for further analysis.

| SMILES | IC50 ([1]; Table 2) [nM] | EC50 (HCV replicon cells; Table 2) [nM] | IC50 ([1]; Table 1) [nM] | EC50 (HCV replicon cells; Table 1) [nM] |
| --- | --- | --- | --- | --- |
| CNC(=O)c1c(-c2ccc(F)cc2)nn2ccc(-c3cc(C(=O)NC4(c5ccccn5)CC4)ccc3C)cc12 [drawing 179] | 5.15 | 10 |  |  |
| CCN(c1cn2nc(-c3ccc(F)cc3)c(C(=O)NC)c2cc1-c1cccc(C(=O)NC(C)(C)c2ccccc2)c1)S(C)(=O)=O [drawing 92] |  |  | 2 to 250 | 2 to 250 |
| CNC(=O)c1c(-c2ccc(F)cc2)nn2ccc(-c3cc(C(=O)NC4(c5ccccn5)CC4)c(OC)cc3C)c(F)c12 [drawing 135] |  |  | 2 to 250 | 2 to 250 |
| CNC(=O)c1c2cc(-c3cccc(C(=O)NC(C)(C)c4ccccc4)c3)ccc2nn1-c1ccc(F)cc1 |  |  | 2 to 250 | 250 to 1000 |
| CNC(=O)c1c(-c2ccc(F)cc2)nn2ccc(-c3cc(C(=O)NC4(c5ccccc5)CC4)ccc3C)cc12 [drawing 87] |  |  | 2 to 250 | 2 to 250 |
| CNC(=O)c1c(-c2ccc(F)cc2)nn2ccc(NC(=O)c3cccc(OC)c3)cc12 |  |  | > 10000 | > 10000 |
| CNC(=O)c1c(-c2ccccc2)nn2cc(-c3ccccc3CO)ccc12 |  |  | > 10000 | > 10000 |
| CNC(=O)c1c(-c2ccc(F)cc2)oc2ncc(-c3cc(C(=O)NC4(c5ccccn5)CC4)ccc3C)cc12 [drawing 116] |  |  | 2 to 250 | 2 to 250 |
| CNC(=O)c1c(-c2ccc(F)cc2)nc2ccc(-c3cccc(C(=O)O)c3)cn12 |  |  | > 10000 | > 10000 |
| CNC(=O)c1c(-c2ccc(F)cc2)nn2cc(N)ccc12 |  |  | > 10000 | > 10000 |
| CNC(=O)c1c(-c2ccc(F)cc2)nn2cc(F)c(-c3cc(C(=O)NC4(c5ccccc5)CC4)ccc3C)cc12 |  |  | 2 to 250 | 2 to 250 |
| CNC(=O)c1c(-c2ccc(F)cc2)nn2ccc(-c3cc(C(=O)NC4(c5cc(C)on5)CC4)c(OC)cc3C)c(F)c12 |  |  | 2 to 250 | 2 to 250 |
| CNC(=O)c1c(-c2ccccc2)nn2cc(-c3ccccc3OC)ccc12 |  |  | 1000 to 10000 | 1000 to 10000 |
| CNC(=O)c1c(-c2ccc(F)cc2)nn2ccc(N)cc12 |  |  | > 10000 | > 10000 |
| CNC(=O)c1c(-c2ccc(F)cc2)nn2cc(N(CCO)S(C)(=O)=O)c(-c3cccc(C(=O)NC4(c5ccccn5)CC4)c3)cc12 [drawing 86] |  |  | 2 to 250 | 1000 to 10000 |
| CNC(=O)c1c(-c2ccc(F)cc2)nn2ccc(-c3cc(C(=O)NC4(c5ccccc5F)CC4)c(OC)cc3C)c(F)c12 |  |  | 2 to 250 | 250 to 1000 |
| CNC(=O)c1c(-c2ccc(F)cc2)nn2ccc(-c3cccc(C(=O)NC(C)(C)C)c3)cc12 |  |  | 250 to 1000 | 2 to 250 |

| SMILES | IC50 ([1]; Table 2) [nM] | EC50 (HCV replicon cells; Table 2) [nM] | IC50 ([1]; Table 1) [nM] | EC50 (HCV replicon cells; Table 1) [nM] |
| --- | --- | --- | --- | --- |
| CNC(=O)c1c(-c2ccc(F)cc2)sc2ccc(-c3cccc(C(=O)NC4(c5ccccc5)CC4)c3)cc12 |  |  | 250 to 1000 | 1000 to 10000 |
| CNC(=O)c1c(-c2ccc(F)cc2)nn2cc(NC(=O)C(F)(F)F)ccc12 |  |  | > 10000 | > 10000 |
| CNC(=O)c1c(-c2ccc(F)cc2)nc2ccc(-c3ccc(-c4ccccc4)c(C(=O)NCC(C)C)c3)cn12 |  |  | > 500 | 250 to 1000 |
| CNC(=O)c1c(-c2ccc(F)cc2)nn2ccc(-c3cc(C(=O)NC(C)(C)C)ccc3OC)cc12 |  |  | 2 to 250 | 250 to 1000 |
| CNC(=O)c1c(-c2ccc(F)cc2)oc2ncc(-c3cccc(C(=O)NC(C)(C)c4ccccc4)c3)cc12 |  |  | 2 to 250 | 2 to 250 |
| CCN(c1cn2nc(-c3ccc(F)cc3)c(C(=O)NC)c2cc1C1CCCC1)S(C)(=O)=O |  |  | 250 to 1000 | 1000 to 10000 |
| CNC(=O)c1c(-c2ccc(F)cc2)nn2cc(N(CCO)S(C)(=O)=O)c(OC)cc12 [drawing 50] |  |  | 1000 to 10000 | 1000 to 10000 |
| CNC(=O)c1c(-c2ccc(F)cc2)nn2ccc(-c3cc(C(=O)NC4(c5ccc(F)cc5)CC4)c(OC)cc3C)c(F)c12 |  |  | 2 to 250 | 2 to 250 |
| CNC(=O)c1c(-c2ccc(F)cc2)nc2ccc(-c3cccc(C(=O)NC4(c5ccccc5)CC4)c3)cn12 |  |  | 2 to 250 | 2 to 250 |
| CNC(=O)c1c(-c2ccc(F)cc2)nn2cc(N(CC3CC3)S(C)(=O)=O)c(-c3cccc(C(=O)NC(C)(C)c4ccccc4)c3)cc12 |  |  | 2 to 250 | 2 to 250 |
| CC(C)(NC(=O)c1cccc(-c2ccn3nc(-c4ccccc4)c(C(=O)O)c3c2)c1)c1ccccc1 |  |  | > 10000 | > 10000 |
| CNC(=O)c1c(-c2ccc(F)cc2)nn2ccc(-c3cc(C(=O)NC4(c5ncccn5)CC4)ccc3C)c(F)c12 |  |  | 2 to 250 | 2 to 250 |
| CNC(=O)c1c(-c2ccc(F)cc2)nc2ccc(-c3cc(C(=O)NC4(c5ccccn5)CC4)ccc3C)cn12 |  |  | 2 to 250 | 2 to 250 |
| CNC(=O)c1c(-c2ccc(F)cc2)sc2ccc(-c3cccc(C(=O)NC(C)(C)C)c3)cc12 [drawing 183] | > 4170 | 1860 |  |  |
| CNC(=O)c1c(-c2ccc(F)cc2)nn2ccc(-c3cc(C(=O)NC4(c5ccccn5)CC4)ccc3C)c(F)c12 [drawing 130] |  |  | 2 to 250 | 2 to 250 |
| CNC(=O)c1c(-c2ccc(F)cc2)nn2ccc(-c3cc(C(=O)NC4(C(C)C)CC4)c(OC)cc3C)c(F)c12 |  |  | 2 to 250 | 2 to 250 |
| CNC(=O)c1c(-c2ccc(F)cc2)nc2ccc(-c3cccc(C(=O)NC(C)(C)C)c3)cn12 [drawing 180] | 640 | 400 |  |  |
